Results taken from patent publication US6348457B1, “4-[3-benzofuranyl]piperidinyl and 4-[3-benzothienyl]piperidinyl derivatives” (Janssen Pharmaceutica N.V., priority 1922, dated 2002).

Legend:
Female Wistar rats = assay: Reserpine Tremor Test; format: in vivo, rat; settings: route sc, dose 2.5 mg/kg, 90 min before testing; reserpine 2 mg/kg iv 60 min before testing; 15-min session; number of rats out of rats tested
Description: Female Wistar rats weighing 200-220 g were used. These test animals were food deprived for 24 hours. Said rats were pretreated orally (po) or subcutaneously (sc) with a test compound at 90 minutes before testing. This pretreatment was followed by an intravenous injection of 2 mg/kg reserpine at 60 minutes before testing. Two control groups of 20 rats each were included in the experiment. The first control group consisted of rats that were only treated with a saline solution and the second control group consisted of animals which only received a saline reserpine solution. At the start of the test, the rats were individually placed in specially designed test cages and tremor activity was measured continuously during a 15-min test session. These test cages consisted of a plexiglass chamber. The floor of the test cage consisted of a plexiglass plate which was centered underneath the cage. […] The floor plate rested at its four corners on a rubber point of support. Two pieces of piezo-film were tied up next to each other underneath the middle of the floor plate. Said piezo-films were connected to an amplifier. The test cage was situated in a sound and light attenuating out box, being constantly illuminated and air-ventilated. The piezo-electric response, produced by deformation of the cage floor was amplified by an individual amplifier for each piezo-film separately. […]

melting point: 159.8 °C
SMILES: Cc1nc2ccccn2c(=O)c1CCN1CCC(c2coc3cc(F)ccc23)CC1 [Co. No. 1, 3-[2-[4-(6-fluoro-3-benzofuranyl)-1-piperidinyl]ethyl]-2-methyl-4H-pyrido-[1,2-a]pyrimidin-4-one]
rats showing a tremor activity below 35 counts (Female Wistar rats): 3
